Patent publication US10894058B2, “Method for producing solid dispersion containing hardly soluble polyphenol” (KAO CORPORATION, priority 2014, dated 2021)
Converted amounts (≈) assume the structure as drawn. One block for each compound: values may come before it.

Assays:
[1] = Evaluation of solubility: concentration of hardly soluble polyphenol dissolved in ion-exchanged water, quantified by HPLC; assay type: physicochemical; settings: sample added to ion-exchanged water at 1 g/L, shaken at 25° C. for 5 minutes, filtered 0.8 μm
Protocol: Hardly soluble polyphenols were each quantified by a gradient method using a high-performance liquid chromatograph manufactured by Hitachi, Ltd. with a column Cadenza CD-C18 (4.6 mmφ×150 mm, 3 μm) manufactured by Imtakt Corporation at a column temperature of 40° C.
A mobile phase, solution A, was 0.05 mol/L acetic acid aqueous solution, and the other mobile phase, solution B, was acetonitrile. Flow rate was 1.0 mL/min. Gradient conditions are shown below.
In addition, ellagic acid was quantified using the same device except that only gradient conditions were set as shown below.
The sample injection volume was 10 μL, and quantification was carried out on the basis of an absorbance at a wavelength of 254 nm.
A sample was added to ion-exchanged water at 1 g/L, and the resultant was shaken at 25° C. for 5 minutes. After that, the resultant was filtered with a cellulose acetate filter having a pore size of 0.8 μm, and the concentration of a hardly soluble polyphenol dissolved was measured by the above-mentioned quantification method.

[2] = cited from earlier work
[3] = X-ray diffraction analysis: crystallinity degree of ellagic acid; assay type: physicochemical; settings: powder X-ray diffraction, FIG. 1 to FIG. 3
Protocol: The crystallinity degree of the hardly soluble polyphenol may be calculated by the following method. First, diffraction intensity values determined by an X-ray diffraction method are subjected to peak separation into a crystalline diffraction line and an amorphous halo through profile fitting without considering effects of incoherent scattering, a lattice defect, and the like. Next, the crystallinity degree of a hardly soluble polyphenol is calculated by the following calculation equation (2) from the resultant integrated intensities of the respective peaks: Crystallinity degree (%) of hardly soluble polyphenol=[ΣIα/(ΣIα+ΣIam)]×100 (2) where ΣIα represents a sum of integrated intensities of respective peaks in a crystalline diffraction line, and ΣIam represents a sum of integrated intensities of respective peaks in a diffraction line of an amorphous part.
An X-ray diffraction intensity was measured using “Mini Flex II” manufactured by Rigaku Corporation under the conditions of: an X-ray source of Cu/Kα-radiation; a tube voltage of 30 kV; a tube current of 15 mA; a measurement range of from 5° to 40° in terms of a diffraction angle; and an X-ray scan speed of 10°/min. A sample for measurement was prepared by compressing a pellet having an area of 400 mm^2 and a thickness of 0.5 mm.

SMILES: c1cc2c(cc1[C@H]1OC[C@H]3[C@@H]1CO[C@@H]3c1ccc3c(c1)OCO3)OCO2 [Comparative Example 9, Sesamin]
- Amount of sesamin dissolved [1]: 0.0001 g/L

SMILES: O=c1oc2c(O)c(O)cc3c(=O)oc4c(O)c(O)cc1c4c23 [Comparative Example 1, Ellagic acid]
- Amount of ellagic acid dissolved [1]: 0.0053 g/L
- solubility in water (25° C.) [2]: 5 µg/mL (≈ 16.5 µM)
- crystallinity degree of ellagic acid [3]: 87%

SMILES: COc1cc(/C=C/C(=O)CC(=O)/C=C/c2ccc(O)c(OC)c2)ccc1O [Comparative Example 7, Curcumin]
- Amount of curcumin dissolved [1]: 0.001 g/L

SMILES: O.O.O=c1c(O)c(-c2ccc(O)c(O)c2)oc2cc(O)cc(O)c12 [Comparative Example 5, Quercetin dihydrate]
- Amount of quercetin dissolved [1]: 0.005 g/L

Now from value to compound:

- Amount of resveratrol dissolved [1]: 0.03 g/L
SMILES: Oc1ccc(C=Cc2cc(O)cc(O)c2)cc1 [Comparative Example 11, Resveratrol]

- Amount of nobiletin dissolved [1]: 0.007 g/L
SMILES: COc1ccc(-c2cc(=O)c3c(OC)c(OC)c(OC)c(OC)c3o2)cc1OC [Comparative Example 8, Nobiletin]

- Amount of naringenin dissolved [1]: 0.008 g/L
SMILES: O=C1C[C@@H](c2ccc(O)cc2)Oc2cc(O)cc(O)c21 [Comparative Example 12, Naringenin]
